Measured values as given in ChEMBL document CHEMBL5678816, “A Next-Generation TRK Kinase Inhibitor Overcomes Acquired Resistance to Prior TRK Kinase Inhibition in Patients with TRK Fusion-Positive Solid Tumors” (Cancer Discov, 2017).
Activity calls are given as the source filed them. The rule behind the calls is not given here.

Legend:
NIH3T3 = assay: Antitumor activity against mouse NIH3T3 cells harboring extracellular domain deleted TRKA G595R mutant implanted in nu/nu NCr mouse assessed as inhibition of tumor growth at 30 to 300 mg/kg, po administered twice daily for 12 days; assay type: functional, organism-based; conditions: dose 30-300 mg/kg, time 12.0 day
MDA-MB-231 = assay: Inhibition of cell proliferation in human MDA-MB-231 cells upto 10 umol/L incubated for 72 hrs by DAPI staining based analysis; assay type: functional; conditions: dose <= 10.0 µmol/L
AN3-CA = assay: Inhibition of cell proliferation in human AN3-CA cells upto 10 umol/L incubated for 72 hrs by DAPI staining based analysis; assay type: functional; conditions: dose <= 10.0 µmol/L
HMCB cell line = assay: Inhibition of cell proliferation in human HMCB cells upto 10 umol/L incubated for 72 hrs by DAPI staining based analysis; assay type: functional; conditions: dose <= 10.0 µmol/L
SW579 = assay: Inhibition of cell proliferation in human SW579 cells upto 10 umol/L incubated for 72 hrs by DAPI staining based analysis; assay type: functional; conditions: dose <= 10.0 µmol/L
KG-1 = assay: Inhibition of cell proliferation in human KG-1 cells upto 10 umol/L incubated for 72 hrs by DAPI staining based analysis; assay type: functional; conditions: dose <= 10.0 µmol/L
CHL-1 = assay: Inhibition of cell proliferation in human CHL-1 cells upto 10 umol/L incubated for 72 hrs by DAPI staining based analysis; assay type: functional; conditions: dose <= 10.0 µmol/L
[1] = target: Proto-oncogene tyrosine-protein kinase ROS (Homo sapiens) (UniProt P08922); assay: Inhibition of Ros (unknown origin) at 1 uM in presence of ATP relative to control
[2] = target: Insulin receptor (Homo sapiens) (UniProt P06213); assay: Inhibition of IR (unknown origin) at 1 uM in presence of ATP relative to control; values are per cent of control
Insulin receptor (Homo sapiens), sequence (P06213 28-758 limits assumed): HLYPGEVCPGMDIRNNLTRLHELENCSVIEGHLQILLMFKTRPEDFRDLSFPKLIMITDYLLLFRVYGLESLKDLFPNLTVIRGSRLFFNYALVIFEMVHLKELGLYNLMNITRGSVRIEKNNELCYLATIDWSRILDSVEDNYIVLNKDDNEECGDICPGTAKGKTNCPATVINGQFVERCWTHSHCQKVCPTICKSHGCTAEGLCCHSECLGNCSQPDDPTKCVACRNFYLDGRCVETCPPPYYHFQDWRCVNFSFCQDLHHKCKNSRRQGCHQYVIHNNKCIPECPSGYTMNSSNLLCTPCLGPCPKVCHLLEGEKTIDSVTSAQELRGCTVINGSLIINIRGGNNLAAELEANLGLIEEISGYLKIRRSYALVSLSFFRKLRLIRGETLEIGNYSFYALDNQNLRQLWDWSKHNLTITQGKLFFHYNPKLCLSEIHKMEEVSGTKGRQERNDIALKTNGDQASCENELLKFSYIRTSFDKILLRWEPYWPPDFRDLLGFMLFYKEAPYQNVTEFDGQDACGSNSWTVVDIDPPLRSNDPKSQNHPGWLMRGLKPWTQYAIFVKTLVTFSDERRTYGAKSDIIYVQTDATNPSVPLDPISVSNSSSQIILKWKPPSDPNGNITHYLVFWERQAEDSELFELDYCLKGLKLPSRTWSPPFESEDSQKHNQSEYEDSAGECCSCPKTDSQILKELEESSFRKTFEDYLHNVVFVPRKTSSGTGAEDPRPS
Insulin receptor (Homo sapiens), sequence (P06213 763-1382 limits assumed): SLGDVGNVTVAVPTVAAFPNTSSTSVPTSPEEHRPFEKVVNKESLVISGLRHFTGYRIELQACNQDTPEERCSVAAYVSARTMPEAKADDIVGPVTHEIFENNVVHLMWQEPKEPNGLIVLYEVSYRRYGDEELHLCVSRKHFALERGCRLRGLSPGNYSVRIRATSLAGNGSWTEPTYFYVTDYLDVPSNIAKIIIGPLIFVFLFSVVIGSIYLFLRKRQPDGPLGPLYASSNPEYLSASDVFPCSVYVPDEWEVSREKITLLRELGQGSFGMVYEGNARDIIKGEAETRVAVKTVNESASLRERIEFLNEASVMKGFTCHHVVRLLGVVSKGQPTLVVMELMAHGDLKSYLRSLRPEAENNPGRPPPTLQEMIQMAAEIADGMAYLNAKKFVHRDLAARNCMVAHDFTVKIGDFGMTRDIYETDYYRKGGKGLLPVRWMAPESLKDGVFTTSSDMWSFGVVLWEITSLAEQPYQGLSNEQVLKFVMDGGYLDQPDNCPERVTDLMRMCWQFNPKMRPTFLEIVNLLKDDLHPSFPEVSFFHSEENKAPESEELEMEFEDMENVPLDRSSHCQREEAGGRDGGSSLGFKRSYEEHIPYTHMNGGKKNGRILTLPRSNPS

[3] = target: Serine/threonine-protein kinase 10 (Homo sapiens) (UniProt O94804); assay: Inhibition of LOK (unknown origin) at 1 uM in presence of ATP relative to control; values are per cent of control
[4] = target: Tyrosine-protein kinase CSK (Homo sapiens) (UniProt P41240); assay: Inhibition of CSK (unknown origin) at 1 uM in presence of ATP relative to control; values are per cent of control
[5] = target: Tyrosine-protein kinase receptor TYRO3 (Homo sapiens) (UniProt Q06418); assay: Inhibition of Rse (unknown origin) at 1 uM in presence of ATP relative to control; values are per cent of control
Tyrosine-protein kinase receptor TYRO3 (Homo sapiens), sequence (Q06418 whole entry): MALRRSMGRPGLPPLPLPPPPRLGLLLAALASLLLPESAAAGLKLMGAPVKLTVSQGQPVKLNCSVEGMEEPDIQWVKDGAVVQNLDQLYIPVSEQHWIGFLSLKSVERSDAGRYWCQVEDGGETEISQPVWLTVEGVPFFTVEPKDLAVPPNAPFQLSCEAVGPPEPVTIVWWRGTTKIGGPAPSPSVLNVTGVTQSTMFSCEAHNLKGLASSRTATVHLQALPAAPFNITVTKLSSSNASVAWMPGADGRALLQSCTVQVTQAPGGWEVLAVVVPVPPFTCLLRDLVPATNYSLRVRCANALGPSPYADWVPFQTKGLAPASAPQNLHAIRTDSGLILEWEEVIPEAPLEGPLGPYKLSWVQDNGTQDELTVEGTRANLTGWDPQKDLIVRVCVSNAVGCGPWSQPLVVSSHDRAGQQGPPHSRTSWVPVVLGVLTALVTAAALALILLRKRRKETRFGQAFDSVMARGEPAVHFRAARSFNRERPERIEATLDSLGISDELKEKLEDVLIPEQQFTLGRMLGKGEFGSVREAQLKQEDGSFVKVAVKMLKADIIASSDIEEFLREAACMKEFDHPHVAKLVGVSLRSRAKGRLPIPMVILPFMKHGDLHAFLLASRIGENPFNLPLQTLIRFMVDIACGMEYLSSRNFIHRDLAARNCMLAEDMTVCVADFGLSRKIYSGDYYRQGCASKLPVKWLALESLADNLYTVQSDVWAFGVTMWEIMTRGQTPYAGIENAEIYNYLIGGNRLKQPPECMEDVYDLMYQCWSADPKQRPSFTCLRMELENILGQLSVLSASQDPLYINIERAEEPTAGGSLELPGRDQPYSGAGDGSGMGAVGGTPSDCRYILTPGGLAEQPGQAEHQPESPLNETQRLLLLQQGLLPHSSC

[6] = target: Ribosomal protein S6 kinase alpha-5 (Homo sapiens) (UniProt O75582); assay: Inhibition of MSK1 (unknown origin) at 1 uM in presence of ATP relative to control; values are per cent of control
[7] = target: Ribosomal protein S6 kinase alpha-4 (Homo sapiens) (UniProt O75676); assay: Inhibition of MSK2 (unknown origin) at 1 uM in presence of ATP relative to control; values are per cent of control
Ribosomal protein S6 kinase alpha-4 (Homo sapiens), sequence (O75676 whole entry, looked up): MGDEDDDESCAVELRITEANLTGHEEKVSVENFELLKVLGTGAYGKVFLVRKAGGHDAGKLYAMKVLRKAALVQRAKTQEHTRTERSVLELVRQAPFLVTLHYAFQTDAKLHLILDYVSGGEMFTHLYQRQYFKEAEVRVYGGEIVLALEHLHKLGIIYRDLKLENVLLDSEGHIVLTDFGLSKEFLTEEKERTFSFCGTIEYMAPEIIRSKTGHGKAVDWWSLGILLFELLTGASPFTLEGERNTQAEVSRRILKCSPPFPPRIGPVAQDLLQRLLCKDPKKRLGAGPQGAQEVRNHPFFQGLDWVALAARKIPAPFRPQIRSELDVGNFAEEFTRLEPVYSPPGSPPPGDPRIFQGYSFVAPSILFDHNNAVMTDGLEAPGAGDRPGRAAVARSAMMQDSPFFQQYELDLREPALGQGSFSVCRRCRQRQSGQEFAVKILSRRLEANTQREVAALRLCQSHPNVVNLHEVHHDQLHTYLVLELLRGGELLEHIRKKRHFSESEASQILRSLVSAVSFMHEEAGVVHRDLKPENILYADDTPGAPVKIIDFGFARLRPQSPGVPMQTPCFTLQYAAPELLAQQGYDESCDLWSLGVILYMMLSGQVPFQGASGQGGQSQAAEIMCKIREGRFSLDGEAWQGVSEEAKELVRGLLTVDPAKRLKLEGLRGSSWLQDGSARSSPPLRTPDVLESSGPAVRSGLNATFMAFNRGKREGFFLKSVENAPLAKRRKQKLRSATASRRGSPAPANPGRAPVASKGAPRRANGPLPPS

[8] = target: Ribosomal protein S6 kinase alpha-6 (Homo sapiens) (UniProt Q9UK32); assay: Inhibition of Rsk4 (unknown origin) at 1 uM in presence of ATP relative to control; values are per cent of control
[9] = target: Maternal embryonic leucine zipper kinase (Homo sapiens) (UniProt Q14680); assay: Inhibition of MELK (unknown origin) at 1 uM in presence of ATP relative to control; values are per cent of control
Maternal embryonic leucine zipper kinase (Homo sapiens), sequence (Q14680 whole entry, looked up): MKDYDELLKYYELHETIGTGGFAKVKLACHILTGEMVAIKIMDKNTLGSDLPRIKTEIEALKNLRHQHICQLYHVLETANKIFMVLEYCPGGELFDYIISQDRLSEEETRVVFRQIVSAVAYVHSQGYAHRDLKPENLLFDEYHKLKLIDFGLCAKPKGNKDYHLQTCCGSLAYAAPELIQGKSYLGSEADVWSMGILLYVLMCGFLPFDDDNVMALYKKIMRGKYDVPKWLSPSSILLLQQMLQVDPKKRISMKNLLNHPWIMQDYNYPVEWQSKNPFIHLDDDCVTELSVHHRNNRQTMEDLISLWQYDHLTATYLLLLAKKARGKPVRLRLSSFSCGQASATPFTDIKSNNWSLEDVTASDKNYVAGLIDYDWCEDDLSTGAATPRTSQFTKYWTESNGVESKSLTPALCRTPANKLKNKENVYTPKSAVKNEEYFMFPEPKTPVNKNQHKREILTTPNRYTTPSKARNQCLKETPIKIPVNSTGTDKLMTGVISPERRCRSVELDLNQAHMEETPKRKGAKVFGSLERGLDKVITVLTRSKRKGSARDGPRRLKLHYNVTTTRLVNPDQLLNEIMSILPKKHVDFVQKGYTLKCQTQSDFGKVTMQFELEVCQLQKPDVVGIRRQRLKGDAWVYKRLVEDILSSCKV

[10] = target: Serine/threonine-protein kinase Nek6 (Homo sapiens) (UniProt Q9HC98); assay: Inhibition of NEK6 (unknown origin) at 1 uM in presence of ATP relative to control; values are per cent of control
[11] = target: Serine/threonine-protein kinase TBK1 (Homo sapiens) (UniProt Q9UHD2); assay: Inhibition of TBK1 (unknown origin) at 1 uM in presence of ATP relative to control; values are per cent of control
[12] = target: Serine/threonine-protein kinase PAK 4 (Homo sapiens) (UniProt O96013); assay: Inhibition of PAK4 (unknown origin) at 1 uM in presence of ATP relative to control; values are per cent of control
Serine/threonine-protein kinase PAK 4 (Homo sapiens), sequence (O96013 whole entry, looked up): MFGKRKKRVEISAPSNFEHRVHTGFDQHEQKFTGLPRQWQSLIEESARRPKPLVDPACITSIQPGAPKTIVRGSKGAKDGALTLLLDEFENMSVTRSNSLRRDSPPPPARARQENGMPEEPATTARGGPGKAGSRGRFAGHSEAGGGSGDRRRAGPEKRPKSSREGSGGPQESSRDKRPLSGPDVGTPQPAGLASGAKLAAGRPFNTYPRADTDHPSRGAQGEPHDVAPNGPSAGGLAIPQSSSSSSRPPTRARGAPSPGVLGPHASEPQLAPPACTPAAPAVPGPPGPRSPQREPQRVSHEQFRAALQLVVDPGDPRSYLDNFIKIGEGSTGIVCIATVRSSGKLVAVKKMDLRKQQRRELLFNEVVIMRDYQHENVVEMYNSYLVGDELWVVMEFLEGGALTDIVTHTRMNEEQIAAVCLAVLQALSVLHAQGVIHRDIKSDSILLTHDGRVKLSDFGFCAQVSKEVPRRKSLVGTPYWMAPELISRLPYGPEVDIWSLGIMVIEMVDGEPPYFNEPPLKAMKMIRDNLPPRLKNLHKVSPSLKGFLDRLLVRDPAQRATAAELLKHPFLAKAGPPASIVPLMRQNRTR

[13] = target: Vascular endothelial growth factor receptor 3 (Homo sapiens) (UniProt P35916); assay: Inhibition of FLt4 (unknown origin) at 1 uM in presence of ATP relative to control; values are per cent of control
[14] = target: Tyrosine-protein kinase JAK2 (Homo sapiens) (UniProt O60674); assay: Inhibition of JAK2 (unknown origin) at 1 uM in presence of ATP relative to control; values are per cent of control
[15] = target: Fibroblast growth factor receptor 3 (Homo sapiens) (UniProt P22607); assay: Inhibition of FGFR3 (unknown origin) at 1 uM in presence of ATP relative to control; values are per cent of control
[16] = target: LIM domain kinase 1 (Homo sapiens) (UniProt P53667); assay: Inhibition of LIMK1 (unknown origin) at 1 uM in presence of ATP relative to control; values are per cent of control
[17] = target: Serine/threonine-protein kinase haspin (Homo sapiens) (UniProt Q8TF76); assay: Inhibition of Haspin (unknown origin) at 1 uM in presence of ATP relative to control; values are per cent of control
Serine/threonine-protein kinase haspin (Homo sapiens), sequence (Q8TF76 whole entry): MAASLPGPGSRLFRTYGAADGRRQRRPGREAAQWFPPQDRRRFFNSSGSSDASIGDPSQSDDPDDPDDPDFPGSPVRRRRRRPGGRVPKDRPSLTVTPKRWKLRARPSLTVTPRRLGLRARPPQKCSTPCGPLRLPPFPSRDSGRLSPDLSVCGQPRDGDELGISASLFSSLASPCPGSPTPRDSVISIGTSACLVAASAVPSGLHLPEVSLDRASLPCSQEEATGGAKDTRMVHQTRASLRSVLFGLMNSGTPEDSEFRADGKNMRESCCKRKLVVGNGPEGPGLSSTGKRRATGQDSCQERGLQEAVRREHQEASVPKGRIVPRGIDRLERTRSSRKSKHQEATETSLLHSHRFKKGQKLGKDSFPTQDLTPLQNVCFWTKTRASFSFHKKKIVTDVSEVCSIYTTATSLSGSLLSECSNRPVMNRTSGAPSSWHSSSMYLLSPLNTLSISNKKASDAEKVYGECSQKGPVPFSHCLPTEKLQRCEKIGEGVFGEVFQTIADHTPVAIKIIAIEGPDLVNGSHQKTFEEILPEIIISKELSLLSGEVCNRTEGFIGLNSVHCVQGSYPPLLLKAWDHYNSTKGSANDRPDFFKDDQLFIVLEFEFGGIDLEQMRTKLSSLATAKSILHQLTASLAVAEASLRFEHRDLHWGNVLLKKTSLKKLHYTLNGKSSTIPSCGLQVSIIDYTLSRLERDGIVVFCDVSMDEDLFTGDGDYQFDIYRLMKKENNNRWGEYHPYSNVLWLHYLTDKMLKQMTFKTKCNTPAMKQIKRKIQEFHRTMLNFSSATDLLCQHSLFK

[18] = target: Serine/threonine-protein kinase DCLK2 (Homo sapiens) (UniProt Q8N568); assay: Inhibition of DCAMKL2 (unknown origin) at 1 uM in presence of ATP relative to control; values are per cent of control
[19] = target: Mitogen-activated protein kinase 14 (Homo sapiens) (UniProt Q16539); assay: Inhibition of p38alpha (unknown origin) at 1 uM in presence of ATP relative to control; values are per cent of control
[20] = target: cGMP-dependent protein kinase 1 (Homo sapiens) (UniProt Q13976); assay: Inhibition of PRKG1alpha (unknown origin) at 1 uM in presence of ATP relative to control; values are per cent of control
Homo sapiens = species: Homo sapiens; assay: Inhibition of CDK2/cyclinA (unknown origin) at 1 uM in presence of ATP relative to control; values are per cent of control
[21] = target: Insulin receptor (Homo sapiens) (UniProt P06213); assay: Inhibition of Activated IR (unknown origin) at 1 uM in presence of ATP relative to control; values are per cent of control

C[C@@H]1CCc2ncc(F)cc2[C@H]2CCCN2c2ccn3ncc(c3n2)C(=O)N1 [SELITRECTINIB]
Activity (NIH3T3): Active | inhibition (MDA-MB-231): inactive | inhibition (AN3-CA): inactive | inhibition (HMCB cell line): inactive | inhibition (SW579): inactive | inhibition (KG-1): inactive | inhibition (CHL-1): inactive | inhibition [1]: 12% | residual activity [2]: 92% | residual activity [3]: 99.5% | residual activity [4]: 112% | residual activity [5]: 110% | residual activity [6]: 131% | residual activity [7]: 115% | residual activity [8]: 127% | residual activity [9]: 104% | residual activity [10]: 116% | residual activity [11]: 111% | residual activity [12]: 101% | residual activity [13]: 90% | residual activity [14]: 37.5% | residual activity [15]: 119% | residual activity [16]: 85.5% | residual activity [17]: 110% | residual activity [18]: 140% | residual activity [19]: 109% | residual activity [20]: 110% | residual activity (Homo sapiens): 109% | residual activity [21]: 97%
